Experimental data reported in paper PMC10046037, “GABRG2 Variants Associated with Febrile Seizures” (Biomolecules, 2023).

Target: T1, α1β3γ2 GABAA receptor, γ2R215H variant (Homo sapiens, UniProt P14867+P18507+P28472, R215H)
T1 construct: expressed in transfected cells; host or cells: HEK293T
T1 sequence (P14867 28-456): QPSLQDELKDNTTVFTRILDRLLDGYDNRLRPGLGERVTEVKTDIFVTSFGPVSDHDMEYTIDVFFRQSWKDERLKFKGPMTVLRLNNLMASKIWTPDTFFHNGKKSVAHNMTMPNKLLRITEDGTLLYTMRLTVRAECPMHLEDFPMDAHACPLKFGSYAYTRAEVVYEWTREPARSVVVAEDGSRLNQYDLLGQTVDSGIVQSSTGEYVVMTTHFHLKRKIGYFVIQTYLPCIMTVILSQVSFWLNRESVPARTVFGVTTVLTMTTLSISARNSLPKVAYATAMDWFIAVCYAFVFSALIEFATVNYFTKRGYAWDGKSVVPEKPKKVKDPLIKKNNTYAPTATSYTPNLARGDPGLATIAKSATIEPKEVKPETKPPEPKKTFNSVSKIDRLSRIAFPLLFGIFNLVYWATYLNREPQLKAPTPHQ
T1 sequence (P28472 26-473 isoform P28472-2): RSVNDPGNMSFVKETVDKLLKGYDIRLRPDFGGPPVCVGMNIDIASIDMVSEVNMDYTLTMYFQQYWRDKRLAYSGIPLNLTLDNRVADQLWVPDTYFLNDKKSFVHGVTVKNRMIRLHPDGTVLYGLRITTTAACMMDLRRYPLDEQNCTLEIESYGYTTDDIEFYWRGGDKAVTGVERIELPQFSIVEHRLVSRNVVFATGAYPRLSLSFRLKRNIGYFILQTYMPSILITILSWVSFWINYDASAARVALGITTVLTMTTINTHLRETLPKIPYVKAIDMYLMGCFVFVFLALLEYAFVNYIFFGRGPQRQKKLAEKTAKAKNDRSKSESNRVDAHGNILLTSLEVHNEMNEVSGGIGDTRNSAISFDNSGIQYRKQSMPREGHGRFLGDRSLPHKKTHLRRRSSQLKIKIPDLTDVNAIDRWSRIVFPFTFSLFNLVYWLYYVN
T1 sequence (P18507 40-475 R215H): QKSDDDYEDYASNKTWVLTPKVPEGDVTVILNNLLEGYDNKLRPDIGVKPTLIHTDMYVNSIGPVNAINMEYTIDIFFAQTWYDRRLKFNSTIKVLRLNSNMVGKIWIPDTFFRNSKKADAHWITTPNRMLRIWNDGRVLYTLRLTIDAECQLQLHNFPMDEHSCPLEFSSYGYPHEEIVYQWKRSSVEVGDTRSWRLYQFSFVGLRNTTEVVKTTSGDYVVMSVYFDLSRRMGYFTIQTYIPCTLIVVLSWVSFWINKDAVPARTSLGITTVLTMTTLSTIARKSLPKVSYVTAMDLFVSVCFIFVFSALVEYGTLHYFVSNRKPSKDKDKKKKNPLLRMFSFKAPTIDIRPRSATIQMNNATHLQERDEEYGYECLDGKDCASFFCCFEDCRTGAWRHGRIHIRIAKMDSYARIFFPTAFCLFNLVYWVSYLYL
Test: Automated patch clamp of GABA-elicited currents (SyncroPatch 384PE), γ2R215H
Type: cell-based
Settings: mean
Description: The coding sequences of human α1 (GABRA1, NM_000806), β3 (GABRB3, NM_021912), and γ2 (GABRG2, NM_198904.2) GABAAR subunits were subcloned into the pcDNA3.1 expression vectors (Invitrogen, Waltham, MA, USA).
HEK293T cells (ATCC, CRL-11268) were cultured at 37 °C in a humidified 5% CO2 incubator and maintained in Dulbecco’s modified Eagle’s medium (Invitrogen) supplemented with 10% fetal bovine serum (Life Technologies, Carlsbad, CA, USA), and 100 IU/mL of penicillin/streptomycin (Life Technologies). For the expression experiments, 4 × 10^5 cells were transfected using polyethylenimine (PEI) reagent (40 kD, Polysciences, Warrington, PA, USA) at a DNA: to transfection reagent ratio of 1:2.5 and harvested 36 h after transfection. To express WT and variant α1β3γ2 receptors, a total of 3 µg of α1, β3, and γ2 (WT or mutant) subunit cDNAs were transfected at a ratio of 1:1:1 into 60 mm culture dishes. For the mock-transfected condition, an empty pcDNA3.1 vector was added for a final cDNA transfection amount of 3 μg. For the electrophysiology experiments, 2.5 × 10^5 cells were plated in 100 mm culture dishes and transfected after 24 h with 3 μg of cDNA of each α1, β3, γ2 (wild-type or mutant) subunit, using X-tremeGENE HP DNA transfection Reagent (Roche Diagnostics, Basel, Switzerland), following the manufacturer’s protocol. Recordings were obtained forty-eight hours after transfection.
Whole-cell patch clamp recordings were conducted according to the manufacturer’s standard procedure for the SyncroPatch 384 [31]. […] Using PatchControl 384, electrophysiological parameters, such as seal resistance, capacitance, and series resistance, were determined for each well after the application of a test pulse, and subsequently monitored over time. […] The currents were normalized to the maximal response of each well, and the concentration–response curves were calculated from single-point additions. The EC50 values for each variant or wild-type receptor were calculated across multiple wells for each experimental condition.

- IMAX (maximal GABA-evoked peak current) (1 mM GABA for 5 ms, HEK293T): 0.61 nA
- IMAX variant/IMAX WT (1 mM GABA): 30.44%
- Rise Time (10–90% rise time, 1 mM GABA for 5 ms, HEK293T): 31.68 ms
SMILES: NCCCC(=O)O [GABA, γ-aminobutyric acid]
